Consider 1 compound from US20070053941A1, “Vermin repellent” (priority 2003, published 2007).

Assay [1] concerns moles. The experiment in a line: Field test: IMP vials buried in mole tunnels at a summer residence lawn (Example 1). The format is in vivo, Talpa europaea. On the procedure: Locality: A summer residence in Ängelholm in the south of Sweden.
Active substance: 100 μl 20% IMP in hexane in a sealed glass vial which was crushed at application in a mole tunnel.

The subject of assay [2] is moles. Kind of assay: Garden test: fenced-in 100 square meter zone treated with IMP versus untreated control area (Example 2). The format is in vivo, Talpa europaea. An excerpt: In a garden with an area of 700 square meters with notable mole activity, a zone with an area of 100 square meters was fenced in and treated with IMP under very favourable conditions.

SMILES strings stand for the structures.

Take `COc1nccnc1C(C)C` [IMP, 2-isopropyl-3-methoxy-pyrazine]: the “Repelling effect on moles (comment on the observations)” value in assay [1] (Example 1, overall conclusion) is “has a repelling effect on moles”. For the same compound, the “Observed effect: mole hills” value in assay [1] (January 2003, migration back after treatment in June) was “about 10 mole hills”. In addition, the “Observed effect: new mole hills in direction from the vials” value in assay [1] (June 15, after 2 vials buried June 11 and 3 vials June 14 (100 μl 20% IMP in hexane each), about 20 mole hills at beginning of June) was 4 new mole hills in direction. The “Observed effect: new mole hills” value in assay [1] (June 19, after 5 vials buried) came to 2 new mole hills. In addition, in assay [2] (Example 2, overall conclusion), the “Behaviour of moles in the treated area” value is reported as “decidedly disturbed”. For the same compound, the “Mole hills observed in the treated area” value in assay [2] (after 4 days, 10 from the start, untreated control area 10 as compared with 6 from the start) worked out at 21 mole hills.
